Measured values from patent publication EP2229935A1, “Peptide derivatives or pharmaceutically acceptable salts thereof, method for producing the same, use of said derivatives and pharmaceutical composition” (Nebolsin, Vladimir Evgenievich, priority 1997, dated 1999).
Counter-ions that a name gives are not always drawn. Like-named read-outs stand apart in the source and are kept apart here. Marks after values point to notes of the source that are not given here.

How the values were obtained:
[1] = system: Lewis pulmonary carcinoma (LLC); experiment: Lewis pulmonary carcinoma growth; format: in vivo; details: mice with LLC, day 12; for Growth inhibition percent: compound in drinking water; for Tumor volume (mm^3): compound in drinking water from 24 hours after transplantation
Experimental: Experiments were carried out on male mice with initial body mass 18-20 g. Each group included 10 animals. […] Administration of compounds II, III, IX, X, XII, XIV, XV, XVI, XVII, XIX, XXII, XLVII in drinking water was commenced 24 hours following transplantation and continued till the end of experiment. Effect of the compounds on Lewis rat pulmonary carcinoma (LLC) was estimated by day 12 of experiment by change in tumor volume expressed in mm^3.

[2] = system: hepatic P-450 cytochrome system; experiment: Hexenal sleep duration in mice; format: in vivo; details: CBF1 mice, oral 3 days, control 25.91 ± 1.57
Experimental: Change in Hexenal sleep (HS) duration is the in vivo measurable index of hepatic P-450 cytochrome system condition.
Studies were carried out on male mice of the lines BALB/c*h75, C57B1/6, CBA, DBA/2, first generation CBF1 and BDF1 hybrides, with initial mass 18-20 g, each group including 10 mice; and on mongrel male guinea pigs with initial mass 250-300 g, each group including 24 animals. All the test compounds (from II to LII) were administered orally in drinking water and for three days at doses 50 and 500 µg/kg. Hexenal hydrochloride at a dose […] of animal mass was administered 24 hours after the last drug administration, except for line BALB/c*h75 mice, which were administered Hexenal at a dose 60 µg/kg at the same terms, and guinea pigs for which Hexenal dose was 30 µg/kg. HS duration was determined in minutes.

hydroxyl radical = experiment: Hydroxyl radical formation in the Fenton reagent (chemiluminescence); format: biochemical
[3] = system: Lewis pulmonary carcinoma (LLC); experiment: Lewis pulmonary carcinoma spontaneous metastasizing, oral administration; format: in vivo; details: BDF1 female mice with LLC, oral 24 days; for Mean number of metastases: day 25
Experimental: Each group included 15 animals. 0.3 ml of LLC tumor tissue suspension was intramuscularly injected to mice. Henks solution was used as a solvent. […] Moscow (1992) 13 pp.]. […]

mongrel male rats [4] = experiment: Hypolipidemic activity: experimental hyperlipidemia (atherogenic load); details: atherogenic diet, oral last four days; for HDL-CS / LDL-CS+ VLDL-CS / Total CS / Triglycerides: blood; for Kcs: cholesterol index;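 on all read-outs here: serum drawn 18 h after the final dose from rats deprived of food over that interval, groups of 10 animals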
white mongrel male rats [5] = experiment: Carrageenan paw edema, cutaneous gel application (series 2); format: in vivo; details: for Volume of paws (conditional units) Right: 0.1 ml of 1% gel on right paw, 4 hours after carrageenan; for Volume of paws (conditional units) left: 1% gel group, left paw; for Volume of paws (conditional units) left / Inflammation inhibition (%) / Volume increment: 4 hours; for Inflammation inhibition (%) / Volume increment: 1% gel
Experimental: (§1) Experiment was carried out on white mongrel male rats weighing 280-300 g. Carrageenan-induced edema was caused according to the method of Winter et al. [[inter et al. In: De Rosa M., Giroud J.P., Willoughby D.A. Studies of the mediators of the acute inflammatory reponse induced in rats in different sites by carrageenan and turpentine. […] Paw volume measurement was done using a plethysmograph (Ugo Basile) 1, 3 and 4 hours after carrageenan administration. Inhibition of inflammatory reaction expressed in percent, was calculated according to the formula: 100-[(R-L(exper.))/(L):(R-L(control))/(L)x100](%) [formula] where R - the right paw volume, L - the left paw volume.
Series 2 of experiment. 2% carrageenan solution was injected sublaterally into paws of rats. In 1 minute 0.1 ml of gel comprising the test compounds were applied on the right paw. Gel base consisted of propylene glycol dissolved in the mixture of water and ethanol. Concentration of the compounds in the gel was 1%. Volume of paws was measured 4 hours after carrageenan administration.

superoxide anion-radical = experiment: Superoxide anion-radical formation in the xantine-xantine oxidase system (chemiluminescence); format: biochemical
Experimental: Effect of the compounds of general formula (I) on change in chemiluminescence (CL) determined by hydroxyl radical ( OH) and superoxide anion-radical (O2-), in the model chemical and enzymatic systems.
5 to 10 ml of the test compounds dissolved in water were at needed concentration introduced into a cuvette. A total sample volume was 0.5 ml. • B. Superoxide anion-radical in the mixture of xantine and xantine oxidase [Afanas'ev I., Suslova T., Cheremisina Z. et al. Study of antioxidant properties of metal aspartates.
Incubation medium comprised 5 mM KH2PO4; 0.2 IU/ml xantine oxidase. Xantine at concentration 1 mM was introduced into sample through a dispencer. Luceginine (0.2 mM) was used in this system as luminiscence sensitizer.
CL signal indication was performed by its integration every 10 seconds for 5 minutes. CL flash recording duration after mixing ingredients, depended on a particular process kinetics. For each system, CL light sum (mV) was determined in the control samples without preparations (I-) and in samples comprising respective concentrations of preparations (I+). To estimate CL inhibition (activation) degree, the I+/I- ratio (in relative units) was found in the studied systems.
AOF formation and effect of the test compounds on this process were recorded on the Luminometer-1251 instrument (LKB, Sweden).
Because of such "distension" of the kinetic curve, chemiluminescence light sum was recorded during the first 3-5 minutes which reflected a total amount of light quantums produced in the system till achieving the maximum CL intensity values.

white mongrel male rats [6] = experiment: Carrageenan paw edema, oral administration (series I); format: in vivo
Experimental: as §1
Series I of experiment. […] The reference drug Naproxene was once administered at a dose 20 µg/kg 1 hour before edema induction. Each group included 10 animals.

[7] = system: Isolate HIV-1/IV17 of type 1 human immunodeficiency virus; experiment: Viability of MT-4 cells acutely infected with HIV-1; format: cell-based; details: Human immunodeficiency virus 1, MT4, 168 h, day 7, series 2 (infected cells 24, non-infected 88), read-out: Viability of cells in percent
Experimental: Study was carried out on the culture of human lymphoblastoid cells MT-4. Isolate HIV-1/IV17 of type 1 human immunodeficiency virus from the collection of the D.I.Ivanovsky Institute for Virology was used in experiment. The test compounds of general formula (I): III, VI, VII were introduced into cellular culture at concentrations 1.0; 0.1 and 0.01 µg/ml. The reference drug Azidothymidine was introduced at a dose 0.05 µM/ml. The compounds were introduced into the culture of MT-4 cells at a dose 1000 TCD50 one hour prior to virus introduction. Viability of MT-4 cells was estimated by day 7 of experiment.
Viability of cells was the main efficacy parameter of the test compounds.

mongrel male rats [8] = details: po, 96 h
[9] = system: Strain Aichi of type A human influenza virus; format: in vivo; details: mice, influenza virus; 500 µg/kg
mongrel male mice = experiment: Delayed hypersensitivity induced by picryl chloride (TCB), local ointment; format: in vivo; details: mice, TCB
Experimental: Effect study of the compounds on the delayed type hypersensitivity reaction induced in mice by 2.4.6-trichlorobenzol (TCB) was carried out according to the method of Tarayre et al. [Tarayre J.P., Barbara M., Aliaga M., Tisne-Versilles. Comparative actions of immunosuppressants, glucocorticoids and non-steroidal antiinflammatory drugs on various models of delayed hypersensitivity and on a non-immune inflammation in mice. Arzneim.-Forsch. Drug Res. (1990), Vol. 40, pip.1125-1131].
Studies were conducted on mongrel male mice with initial body mass 30-35 g. Each group included 10 animals. Mice were sensitized with 0.1 ml 3% TCB solution in acetone application on a shaved abdominal area. In 7 days, the anaphylaxis-provoking TCB dose (0.025 ml of 3% solution) was applied on both surfaces of the right ear. In 30 minutes 0.05 ml of the test ointment were rubbed into the same surfaces. 24 hours after edema induction, mice were sacrified, ears were cut off and weighed. Allergic reaction intensity was assessed by change in weight in grams of the right ear (the test one) in relation to the left ear (the control ear).
Allergic reaction inhibition expressed in percent was calculated according to the formula: 100-[(R-L(exper.))/(L):(R-L(control))/(L)x100](%) [formula] where R - the right ear weight, L - the left ear weight.
The test compounds were applied on the ear in the form of 1% and 5% ointment the base of which were 10% methylcellulose solution and propylene glycol at 1:1 ratio.
Groups of animals: • Group 1 - control, ointment base without active substance was applied on the ear of animals. • Group 2 - ointment base comprising 1% compound III was applied on the ear of animals. • Group 3 - ointment base comprising 1% compound XVII was applied on the ear of animals. • Group 4 - ointment base comprising 5% compound XLVIII was applied on the ear of animals.

[10] = 0.01 mM, control of the series as in the table
[11] = 0.1 mM, control of the series as in the table
[12] = 1 mM, control of the series 7839 ± 171, 1120 ± 163, 4974 ± 283 or 1332 ± 172
[13] = 1 mM, control of the series 5616 ± 173, 5391 ± 195, 7290 ± 128 or 6776 ± 150
[14] = intragastral four times 50 µg/kg

SMILES	Growth inhibition percent [1] [%]	Tumor volume (mm^3) [1]	Chemiluminiscence intensity (mV) + σn-1 (hydroxyl radical; [11]) [mV]	relative effect: I+/I- (hydroxyl radical; 1 mM)	Chemiluminiscence intensity (mV) + σn-1 (hydroxyl radical; [12]) [mV]	HDL-CS (mongrel male rats [4]; 50 µg/kg)	Total CS (mongrel male rats [4]; 50 µg/kg)	Triglycerides (mongrel male rats [4]; 50 µg/kg)	HDL-CS (mongrel male rats [4]; 500 µg/kg)	Total CS (mongrel male rats [4]; 500 µg/kg)	Triglycerides (mongrel male rats [4]; 500 µg/kg)	Kcs (mongrel male rats [4]; 50 µg/kg)	Kcs (mongrel male rats [4]; 500 µg/kg)	Volume of paws (conditional units) Right (white mongrel male rats [5]) [conditional units]	Volume of paws (conditional units) left (white mongrel male rats [5]) [conditional units]	Inflammation inhibition (%) (white mongrel male rats [5])	Volume increment (white mongrel male rats [5])	also measured
COC(=O)[C@H](Cc1c[nH]cn1)NC(=O)CCCC(=O)O [IX, N-GLUTARYL-L-HISTIDINE METHYL ETHER]	10	2372 ± 323 mm^3	664 ± 47	0.20	225 ± 9	29,7±3,6*^A	78,4±4,4*^A	24,5±20,2	20,1±1,6	72,1±3,9**^A	201.8±8,1***^A	1,64±0,16***^A	2,59±0,17***^A					Hexenal sleep duration (minutes) ([2]; 50 µg/kg): 16.71 ± 0.94** minutes; Hexenal sleep duration ([2]; 500 µg/kg): 20.76 ± 1.32 min; relative effect: I+/I- (hydroxyl radical; 0.01 mM): 0.95; Chemiluminiscence intensity (mV) + σn-1 (hydroxyl radical; [10]): 1069 ± 72 mV; relative effect: I+/I- (hydroxyl radical; 0.1 mM): 0.59; Mean number of metastases ([3]; 500 µg/kg): 38.5 ± 5.7*^3; Metastasizing inhibition percent ([3]; 500 µg/kg): 24.0%; LDL-CS+ VLDL-CS (mongrel male rats [4]; 50 µg/kg): 48,7±4,4**^A; LDL-CS+ VLDL-CS (mongrel male rats [4]; 500 µg/kg): 52,0±3,4**^A
O=C(O)Cc1ccccc1Nc1c(Cl)cccc1Cl [Voltaren, reference compound]														1.99 ± 0.24	1.63 ± 0.26	48	0.40 ± 0.03	
O=C(O)CCC(=O)NCCc1c[nH]cn1 [compound II, N-SUCCINYLHISTAMINE]	61	1025 ± 150** mm^3	693 ± 42	0.16	175 ± 21													relative effect: 1+/I- (superoxide anion-radical; 0.01 mM): 0.97; Chemiluminiscence intensity (mV) + σn-1 (superoxide anion-radical; [10]): 5229 ± 140 mV; relative effect: 1+/I- (superoxide anion-radical; 0.1 mM): 0.88; Chemiluminiscence intensity (mV) + σn-1 (superoxide anion-radical; [11]): 4753 ± 89 mV; relative effect: 1+/I- (superoxide anion-radical; 1 mM): 0.58; Chemiluminiscence intensity (mV) + σn-1 (superoxide anion-radical; [13]): 3143 ± 156 mV; Hexenal sleep duration (minutes) ([2]; 500 µg/kg): 21.72 ± 1.24* minutes; Inflammation inhibition (%) (white mongrel male rats [6]; [14]): 12%; Volume increment (white mongrel male rats [6]; [14]): 0.64 ±0.05*^!; Volume of paws (conditional units) left (white mongrel male rats [6]; [14]): 1.28 ± 0.28 conditional units; Volume of paws (conditional units) Right (white mongrel male rats [6]; intragastral four times 50 µg/kg 72, 48, 24 and 1 hour before): 1.92 ± 0.65 conditional units; relative effect: I+/I- (hydroxyl radical; 1 µM): 0.86; Chemiluminiscence intensity (mV) + σn-1 (hydroxyl radical; 1 µM, control of the series as in the table): 961 ± 42 mV; relative effect: I+/I- (hydroxyl radical; 0.01 mM): 0.69; Chemiluminiscence intensity (mV) + σn-1 (hydroxyl radical; [10]): 772 ± 44 mV; relative effect: I+/I- (hydroxyl radical; 0.1 mM): 0.62; Mean number of metastases ([3]; 50 µg/kg): 44.3 ± 8.0; Mean number of metastases ([3]; 500 µg/kg): 32.9 ± 4.8*^2; Metastasizing inhibition percent ([3]; 50 µg/kg): 5.5%; Metastasizing inhibition percent ([3]; 500 µg/kg): 30.0%
COC(=O)[C@H](Cc1c[nH]cn1)NC(=O)CC[C@H](N)C(=O)O [compound VII, γ -L-GLUTAMYL-HISTIDINE METHYL ETHER DIHYDROCHLORIDE]			1158 ± 102	0.15	165 ± 7	26,0±1,9	72,3±4,9**^A	250,6±12,0	22,3±2,2	78,1±3,3	251,4±12,71	1,78±0,12***^A	2,5±0,17**^A					viability at 0.01 µg/mL ([7]; 0.01 µg/ml): 34%; viability at 0.1 µg/mL ([7]; 0.1 µg/ml): 49%; viability at 1 µg/mL ([7]; 1.0 µg/ml): 51%; relative effect: 1+/I- (superoxide anion-radical; 0.01 mM): 0.91; Chemiluminiscence intensity (mV) + σn-1 (superoxide anion-radical; [10]): 5082 ± 278 mV; relative effect: 1+/I- (superoxide anion-radical; 0.1 mM): 0.72; Chemiluminiscence intensity (mV) + σn-1 (superoxide anion-radical; [11]): 4050 ± 291 mV; relative effect: 1+/I- (superoxide anion-radical; 1 mM): 0.20; Chemiluminiscence intensity (mV) + σn-1 (superoxide anion-radical; [13]): 1114 ± 51 mV; Hexenal sleep duration (minutes) ([2]; 50 µg/kg): 17.62 ± 0.96* minutes; Hexenal sleep duration (minutes) ([2]; 500 µg/kg): 16.99 ± 1.33* minutes; LDL-CS+ VLDL-CS (mongrel male rats [8]; 0.05 mg/kg): 46,3±3,2**^A; LDL-CS+ VLDL-CS (mongrel male rats [8]; 0.5 mg/kg): 55,8±3,9**^A; increase in MLT, survival rate and protection degree [9]: most manifested
NCCC(=O)NCCc1c[nH]c2ccccc12 [compound XIII]						23,9±1,9	76,3±5,5*^A	201,2±8,7***^A	27,8±2,3*^A	69,3±3,7***^A	190,0±11,7***^A	2,19±0,16***^A	1,49±0,1***^A	2.29 ± 0.18	1.82 ± 0.34	35	0.47 ± 0.08	LDL-CS+ VLDL-CS (mongrel male rats [4]; 50 µg/kg): 52,4±3,9**^A; LDL-CS+ VLDL-CS (mongrel male rats [4]; 500 µg/kg): 41,5±2,9***^A
O=C(O)CCCC(=O)NCCc1c[nH]c2ccccc12 [compound XVII, N-GLUTARYLTRYPTAMINE]	48	1367 ± 233** mm^3																Reaction inhibition (%) (mongrel male mice; 1% ointment): 24%; weight increment (mongrel male mice; 1% ointment): 6.1 ± 0.59 g; Weight of years (g) Right (mongrel male mice; 1% ointment on right ear 30 minutes after challenge, 24 hours): 21.6 ± 1.02 g; Weight of years (g) left (mongrel male mice; left (control) ear of animals given 1% ointment): 15.5 ± 1.02 g
N[C@@H](Cc1c[nH]cn1)C(=O)NCCC(=O)O [compound XXXVI, N-L-HISTIDYL-β-ALANINE]														2.23 ± 0.42	1.86 ± 0.16	50	0.37 ± 0.07	
